Experimental data taken from ChEMBL document CHEMBL1641528, “Reverse type I inhibitor of Mycobacterium tuberculosis CYP125A1” (Bioorg Med Chem Lett, 2011).
pKd: −log10 of the molar value.

Biological target: Steroid C26-monooxygenase (Mycobacterium tuberculosis, UniProt P9WPP1, C429L)
Experiment: Binding affinity to Mycobacterium tuberculosis H37Rv CYP125A1 C429L mutant expressed in Escherichia coli by titration plot analysis

CC1CCC(C(=O)NC(Cc2c[nH]c3ccccc23)C(=O)Nc2ccncc2)CC1 (stereo unspecified)
pKd: 5.77
